Measurements taken from US10214553B2, “Solid state forms of sofosbuvir” (ratiopharm GmbH, priority 2014, dated 2019).
≈ marks a conversion by molar mass, not a printed value.

Columns and labels:
Assay type in all cases: physicochemical
[1] = Dissolution, USP apparatus II, paddle method; settings: pH 6.8, after 5 minutes
Description: Sofosbuvir form 6 prepared according to example 18 above and Sofosbuvir form 7 prepared according to example 16 above was used. The dissolution of Sofosbuvir Form 7 and Form 6 was measured (in triplicate) in 50 mM phosphate buffer at 37° C. (pH 6.8, 900 mL), using USP apparatus II, paddle method. Every 5 minutes, a probe was taken and measured by UV/VIS at 260 nm and path length 0.1 cm; UV/VIS was measured on an Agilent model 8453 with Chem Station Dissolution Software. 400 mg of Sofosbuvir Form 7 or Form 6 was used for the test, and the percentages are given in relation to 400 mg of the API. The results are represented graphically in FIG. 13.

[2] = Solubility at 37° C. by UHPLC/UV; settings: for solubility at 15 min / solubility at 1 h: 37 °C, thermodynamic from solid
Description: (§1) Sofosbuvir form 6 prepared according to example 18 above and Sofosbuvir form 7 prepared according to example 16 above was used.
The solubility was determined as follows:
100 mg test substance was weighed into a glass vial, followed by addition of 4 mL solvent (water, 0.01 M HCl, 20 mM sodium acetate/acetic acid [pH 4.5], 50 mM KH2PO4 [pH 6.8]). A stirring bar was added, the vial was fixed in a block heater at 37° C. and the suspension was stirred with 250 rpm. After 15 min and 1 h, samples were withdrawn and filtered through a 0.2 μm PTFE filter. 100 μL of the clear filtrate were diluted with 900 μL acetonitrile/water mixture (1:1) and 1 μL thereof was analyzed by UHPLC/UV:
Instrument: Agilent 1290 Infinity
Column: Phenomenex Kinetex XB—C18, 1.7 μm, 50×3 mm
Solvent A: water+0.2% Formic acid+0.1% HFBA […] heptafluorobutyric acid)

[3] = DVS water vapor sorption (hygroscopicity); settings: for critical relative humidity in the sorption curve at which the rate of water uptake changes (inflection point): DVS sorption curve; for Change in Mass (%): 25° C.
Description: The improved hygroscopic properties discussed herein above may be expressed by the dynamic water uptake monitored by the DVS instrument. The profile of the dynamic curve obtained may provide insight on the tendency of the substance to deliquescence. […] This behavior indicates a long-term possibility of the stored powder to stick and form lumps.
DVS measurements were performed SMS DVS instrument
Humidity range: 0%-90%-0% cycle. […]
minimum step duration: 60 min maximum step duration: 720 min

[4] = Particle size distribution by laser diffractometry (Mastersizer 2000, wet measurement); settings: silicone oil
Description: If a wet measurement is used the particles to be measured are dispersed in a dispersant, preferably a dispersant having a refractive index (RI) of 1.403, and the measurement is carried out at 2000 rpm and ultrasound for 120 s prior to measurement. Preferably, unless otherwise indicated the particle size distribution is determined using a wet measurement using a Mastersizer 2000 from Malvern Instruments and Malvern Hydro 2000S wet sample dispersion unit and silicone oil as dispersant. Unless otherwise indicated, the following settings are preferably used:
as §1
The particle size distribution was determined using a wet measurement using a Mastersizer 2000 from Malvern Instruments and Malvern Hydro 2000S wet sample dispersion unit and silicone oil as dispersant.

[5] = Propensity to become electrostatically charged
[6] = Storage stability of the solid form
[7] = Compressibility, maximum density at constant pressure of 0.2 MPa (TA-XT2 Texture analyser); settings: 0.2 MPa per step, 10 steps
Description: As used herein, and unless indicated otherwise, the term “compressibility” is expressed as maximum density at constant pressure of 0.2 MPa.
Compression profiles were obtained using a die and a flat-faced punch fitted on a TA-XT2 Texture analyser (Stable Micro Systems Ltd., Godalming, UK).
200 mg of micronized crystalline form E of Sofosbuvir obtained according to example 8 is compressed in a steel mould (with the rate of displacement 0.03 mm/s). Cyclic procedure (similar to tapping) was performed: compressing, then retracting, relaxation for 15 s and then repeated compressive steps (altogether 10 steps). Each step exerts 0.2 MPa pressure on to the sample. Sample density is calculated by dividing the weight by the sample volume for each cycle. Maximum density is reached within 10 steps. The maximal compressive displacement was 0.5 mm. The resulting density was: 0.48 g/ml

CC(C)OC(=O)[C@H](C)NP(=O)(OC[C@H]1O[C@@H](n2ccc(=O)[nH]c2=O)[C@](C)(F)[C@@H]1O)Oc1ccccc1 (stereo partly drawn) [Form 7, (2S)-isopropyl 2-(((((2R,3R,4R,5R)-5-(2,4-dioxo-3,4-dihydropyrimidin-1(2H)-yl)-4-fluoro-3-hydroxy-4-methyltetrahydrofuran-2-yl)methoxy)(phenoxy)phosphoryl)amino)propanoate]
solubility (percent dissolved) [1]: ≥ 65% | solubility at 15 min ([2]; 0.01 M HCl, pH 2, simulated gastric fluid, 15 min): 3200 µg/mL (≈ 6.04 mM) | solubility at 1 h ([2]; 0.01 M HCl, pH 2, simulated gastric fluid, 1 h): 3200 µg/mL (≈ 6.04 mM) | solubility at 15 min ([2]; 20 mM sodium acetate/acetic acid buffer, pH 4.5, aqueous buffer, 20 mM NaOAc/HOAc (pH 4.5), 15 min): 3100 µg/mL (≈ 5.86 mM) | solubility at 1 h ([2]; 20 mM sodium acetate/acetic acid buffer, pH 4.5, aqueous buffer, 20 mM NaOAc/HOAc (pH 4.5), 1 h): 3100 µg/mL (≈ 5.86 mM) | solubility at 15 min ([2]; 50 mM KH2PO4 buffer, pH 6.8, aqueous buffer, 50 mM KH2PO4 (pH 6.8), 15 min): 3200 µg/mL (≈ 6.04 mM) | solubility at 1 h ([2]; 50 mM KH2PO4 buffer, pH 6.8, aqueous buffer, 50 mM KH2PO4 (pH 6.8), 1 h): 3000 µg/mL (≈ 5.67 mM) | solubility compared with the solubility of Form 6 ([2]; physiologically relevant solvents, after 15 min and after 1 hour): approximately one third higher | solubility at 15 min ([2]; water, 15 min): 3100 µg/mL (≈ 5.86 mM) | solubility at 1 h ([2]; water, 1 h): 3100 µg/mL (≈ 5.86 mM)

CC(C)OC(=O)[C@H](C)NP(=O)(OC[C@H]1O[C@@H](n2ccc(=O)[nH]c2=O)[C@](C)(F)[C@@H]1O)Oc1ccccc1 (stereo partly drawn) [Form 1, (2S)-isopropyl 2-(((((2R,3R,4R,5R)-5-(2,4-dioxo-3,4-dihydropyrimidin-1(2H)-yl)-4-fluoro-3-hydroxy-4-methyltetrahydrofuran-2-yl)methoxy)(phenoxy)phosphoryl)amino)propanoate]
critical relative humidity in the sorption curve at which the rate of water uptake changes (inflection point) [3]: about 80 % RH | water uptake ([3]; DVS, above 80% RH): about 5% | Change in Mass (%) ([3]; DVS, relative humidity 70%): 0.13% | Change in Mass (%) ([3]; DVS, relative humidity 90%): 5.57%

CC(C)OC(=O)[C@H](C)NP(=O)(OC[C@H]1O[C@@H](n2ccc(=O)[nH]c2=O)[C@](C)(F)[C@@H]1O)Oc1ccccc1 (stereo partly drawn) [Form 6, (2S)-isopropyl 2-(((((2R,3R,4R,5R)-5-(2,4-dioxo-3,4-dihydropyrimidin-1(2H)-yl)-4-fluoro-3-hydroxy-4-methyltetrahydrofuran-2-yl)methoxy)(phenoxy)phosphoryl)amino)propanoate]
Particle size D10 [4]: 2.0 μm | Particle size D50 [4]: 8.2 μm | Particle size D90 [4]: 22.9 μm | propensity to become electrostatically charged [5]: high propensity to become electrostatically charged | critical relative humidity in the sorption curve at which the rate of water uptake changes (inflection point) [3]: about 70 % RH | water uptake ([3]; DVS, above 70% RH): about 1% | Change in Mass (%) ([3]; DVS, relative humidity 70%): 0.14% | Change in Mass (%) ([3]; DVS, relative humidity 90%): 1.08% | Solubility ([2]; 0.01 M HCl, 15 min): 2500 µg/mL (≈ 4.72 mM) | Solubility ([2]; 0.01 M HCl, 1 h): 2400 µg/mL (≈ 4.53 mM) | Solubility ([2]; 20 mM NaOAc/HOAc (pH 4.5), 15 min): 2400 µg/mL (≈ 4.53 mM) | Solubility ([2]; 20 mM NaOAc/HOAc (pH 4.5), 1 h): 2500 µg/mL (≈ 4.72 mM) | Solubility ([2]; 50 mM KH2PO4 (pH 6.8), 15 min): 2300 µg/mL (≈ 4.34 mM) | Solubility ([2]; 50 mM KH2PO4 (pH 6.8), 1 h): 2300 µg/mL (≈ 4.34 mM) | Solubility ([2]; water, 15 min): 2400 µg/mL (≈ 4.53 mM) | Solubility ([2]; water, 1 h): 2300 µg/mL (≈ 4.34 mM)

CC(C)OC(=O)[C@H](C)NP(=O)(OC[C@H]1O[C@@H](n2ccc(=O)[nH]c2=O)[C@](C)(F)[C@@H]1O)Oc1ccccc1 (stereo partly drawn) [Form E, (2S)-isopropyl 2-(((((2R,3R,4R,5R)-5-(2,4-dioxo-3,4-dihydropyrimidin-1(2H)-yl)-4-fluoro-3-hydroxy-4-methyltetrahydrofuran-2-yl)methoxy)(phenoxy)phosphoryl)amino)propanoate]
hysteresis between the desorption and the absorption isotherm ([3]; DVS): doesn't exhibit any hysteresis | critical relative humidity in the sorption curve at which the rate of water uptake changes (inflection point) [3]: does not show this inflection point | Change in Mass (%) ([3]; DVS, relative humidity 70%): 0.07% | Change in Mass (%) ([3]; DVS, relative humidity 90%): 0.12% | stable for ([6]; at 25 degrees): at least 3 months | stable for ([6]; at 40 degrees): at least 3 months

CC(C)OC(=O)[C@H](C)NP(=O)(OC[C@H]1O[C@@H](n2ccc(=O)[nH]c2=O)[C@](C)(F)[C@@H]1O)Oc1ccccc1 (stereo partly drawn) [(2S)-isopropyl 2-(((((2R,3R,4R,5R)-5-(2,4-dioxo-3,4-dihydropyrimidin-1(2H)-yl)-4-fluoro-3-hydroxy-4-methyltetrahydrofuran-2-yl)methoxy)(phenoxy)phosphoryl)amino)propanoate]
resulting density (compressibility) [7]: 0.48 g/mL
